Data as given in ChEMBL document CHEMBL1144817, “Mirabalin, [corrected] an antitumor macrolide lactam from the marine sponge Siliquariaspongia mirabilis” (J Nat Prod, 2008).
Active and inactive are the calls of the source. No cut-off for these calls is given here.

Legend:
Candida albicans = experiment: Antimicrobial activity against Candida albicans; type: functional, organism-based
[1] = Antiproliferative activity against green monkey kidney cells; type: cell-based; settings: chlorocebus aethiops
HCT-116 = experiment: Antitumor activity against human HCT116 cells; type: functional, cell-based

IC50 (HCT-116): 270 nM
SMILES: CO[C@@H]1[C@@H]2O[C@H](C[C@@H](O)[C@H](C)[C@@H](O)/C(C)=C/[C@H](C)[C@H](O)/C=C/CC(O)CC(C(NC(=O)CC(C)CCC(C)C(O)/C(C)=C/C(C)[C@@H](O)[C@H](NC(=O)/C=C/C(C)(C)C(=O)[C@@H](C)[C@@H](O)C(C)C)[C@@H](O)C(C)C)C(C)O)OC(=O)C(C(O)C(=O)O)NC(=O)/C=C/C=C/C=C/C=C/C=C/[C@H]2OC)C[C@@H]1C (stereo partly drawn) [MIRABILIN MACROLIDE LACTUM]
Activity (Candida albicans): inactive
Activity [1]: Not Active
